Test results published in patent US9630964B2, “Fluoro-9-methyl-β-carbolines” (priority 2013, dated 2017).

Legend:
[1] = system: BDNF (brain-derived neurotrophic factor); assay: Quantitative RT-PCR, relative gene expression of BDNF in SH-SY5Y cells; assay type: cell-based, human; details: 30 μM each, SH-SY5Y
Method: (§1) SH-SY5Y cell lines, which were provided by the institute of human genetics of university hospital Eppendorf and which they in turn received from Braunschweig resource center, were used again for the RT-PCR experiments (reverse transcriptase polymerase chain reaction) carried out for this purpose.
(§2) The cells were incubated in MEM (Minimum essential medium, Life Technologies) with 10% FCS (fetal calf serum, Biochrom AG) and penicillin/streptomycin (Biochrom AG). The cells were seeded with a density of 1×10^5 cells/cm^2 in 25 cm^2 cell culture bottles (Falcon, cell culture treated) with 5 mL medium. Stock solutions of 10 mmol/L of compounds 9-methyl-β-carboline (AC-002 or 9MβC) and 6-fluoro-9-methyl-β-carboline (AC-102 or 6F9MβC), respectively were prepared in distillated water and sterile filtered. One day after the cell seeding the compounds were added in corresponding amounts (5-55 μL) to reach final concentration in the medium of 10 μM, 20 μM and 30 μM for 6F9MβC and 30 μM, 50 μM and 70 μM for 9MβC. The references received only the corresponding amount of solvent (distilled water). The medium was changed once a week.
(§3) The cells were regularly microscopically examined and harvest after 2, 7 and 14 days of incubation time, washed with PBS and immediately frozen at −80° C.
(§4) The RNA-isolation was done with the HighPure RNA Isolation kit of the company Roche. […] The concentration of RNA was measured with nanoDrop spectrometer and the RNA integrity was determined with the aid of the Bioanalyzer 2100 (Agilent). […]
(§5) After the reaction, this run was diluted 1:4 and thereof 2 μL per each quantitative RT-PCR were used. This was performed in a LightCycler 480 under standard conditions in the SybrGreen format with annealing temperatures determined for each primer individually. […]
The specificity was verified by melting curve analysis and subsequent gel electrophoresis. For each PCR the PCR efficiency and the Cq value was determined by the program LinRegPCR and these were used in further calculations. […] Every measured value from FIGS. 5A-5I represents a mean value of 3 independent biologic samples. […]

[2] = system: Cbln (Cerebellin 1 precursor protein); assay: Quantitative RT-PCR, relative gene expression of Cbln in SH-SY5Y cells; assay type: cell-based, human; details: 30 μM each, except after 2-day exposition
Method: as §1
(§6) The cells were incubated in MEM (Minimum essential medium, Life Technologies) with 10% FCS (fetal calf serum, Biochrom AG) and penicillin/streptomycin (Biochrom AG). The cells were seeded with a density of 1×10^5 cells/cm^2 in 25 cm^2 cell culture bottles (Falcon, cell culture treated) with 5 mL medium. […]
as §4, §5
(§7) The specificity was verified by melting curve analysis and subsequent gel electrophoresis. For each PCR the PCR efficiency and the Cq value was determined by the program LinRegPCR and these were used in further calculations. […]

quotient Bax/Bcl2 = assay: Quantitative RT-PCR, quotient Bax/Bcl2 (apoptosis marker) in SH-SY5Y cells; assay type: cell-based, human; details: 30 μM each, except after 2-day exposition
Method: as §1, §6, §4, §5, §7

[3] = system: DKK1 (Dickkopf-related protein 1); assay: Quantitative RT-PCR, relative gene expression of DKK1 in SH-SY5Y cells; assay type: cell-based, human
Method: as §1, §2, §3
The RNA-isolation was done with the HighPure RNA Isolation kit of the company Roche. This isolation includes a DNaseI digestion. The concentration of RNA was measured with nanoDrop spectrometer and the RNA integrity was determined with the aid of the Bioanalyzer 2100 (Agilent). By using random hexamer primers, protector RNA inhibitor (Roche) and transcriptor reverse transcriptase (fermentas), 300 ng RNA were transcribed into cDNA per each sample.
After the reaction, this run was diluted 1:4 and thereof 2 μL per each quantitative RT-PCR were used. This was performed in a LightCycler 480 under standard conditions in the SybrGreen format with annealing temperatures determined for each primer individually. If possible, exon spanning primers were used.
The specificity was verified by melting curve analysis and subsequent gel electrophoresis. For each PCR the PCR efficiency and the Cq value was determined by the program LinRegPCR and these were used in further calculations. B2M (β2-microglobulin) was identified from multiple reference genes to be suitable for examination conditions. All results are results relative to the corresponding reference conditions, at which only solvent was administered for the specified period of time (i.e. 2 days, 7 days or 14 days). In FIGS. 5A to 5I are also relative gene expressions (relative to reference conditions) presented. Here, the 2-day exposition is presented in light grey, the 7-day exposition in dark grey and the 14-day exposition in black. Every measured value from FIGS. 5A-5I represents a mean value of 3 independent biologic samples.
Analogous to example 4 RT-PCR experiments with the inventive active agent 7-fluoro-9-methyl-β-carboline (7F9MβC) were also performed for some important cellular factors. The experimental procedure was here identical to the experiments with 6-fluoro-9-methyl-β-carboline and 9-methyl-β-carboline. Here the same (like for 6F9MβC) final concentrations of 30 μM, 50 μM and 70 μM 7F9MβC for the culture medium were employed. The examined factors were BDNF (brain-derived neurotrophic factor), Lif (Leukemia inhibitory factor), DRD2S (short variant of dopamine receptor subtype 2) as well as DKK1 (Dickkopf-related protein 1). […]

[4] = system: outer hair cells (OHC) in the inner ear; assay: Immunohistochemical experiments: dying of outer hair cells after acoustic trauma; assay type: in vivo; details: guinea pig, intratympanic, total 0.105 mg per ear, day 14
Method: To induce an acoustic trauma, guinea pigs were anesthetized with 60 mg/kg ketamine and 8 mg/kg xylazine. Then Bepanten ointment (Bayer) was administered to the eyes and the animal was put in a soundproof chamber. A calibrated speaker was placed directly above the head of the animal, wherein it was set to emit a half octave band, centered around 8 kHz, with a volume of 110 dB for duration of 30 minutes.
The thermosensitive, liquid mixture was administered under view by a Hamilton syringe directly in front of the round window membrane of the middle ear (10 μL). The first dose 6-fluoro-9-methyl-β-carboline (e.g. 0.07 mg) was administered one hour after the acoustic trauma in a concentration of 0.007 mg/μL and the second dose 6-fluoro-9-methyl-β-carboline (0.035 mg in a volume of 5 μL) on day 3. Here, only one ear per animal was treated, while the second ear served as intra-individual control. The control here is particularly abbreviated to “contr.”. In comparative experiments it was found, that administration of just an active agent vehicle (hydrogel) has no effect in comparison to a fully untreated ear. For each active agent (including the controls) four guinea pigs were examined.
On day 14 after the acoustic trauma the region of the ear was dissected so that it contained the cochlea. […] In this way the sound induced damage can be localized and quantified. […]

CREB = assay: Examination on cellular level: concentration of CREB; assay type: cell-based
[5] = system: BDNF (brain derived neurotrophic factor); assay: Examination on cellular level: concentration of BDNF; assay type: cell-based
[6] = guinea pig, in vivo
Method: For better evaluation of half times of 9-methyl-β-carboline (9MβC), 6-fluoro-9-methyl-β-carboline (6F9MβC) and 7-fluoro-9-methyl-β-carboline (7F9MβC) in animal organism and more precisely in perilymph (the notified site of action), experiments with guinea pigs were conducted. Therefore, the respective active agent (in total 1.4 mg active agent per ear), packed in 40 μl of a hydrogel (18% Poloxamer 407 and 0.6% alginate), was administered at once in front of the membrane of the round window of narcotized guinea pigs. […] After expiry of the desired time (20 min, 2 h, 8 h or 24 h), each time 5 μL perilymph were removed under anesthesia from the top of the cochlea (apex). Subsequently, the animal was killed. Per each time (20 min, 2 h, 8 h or 24 h) measured values were taken of at least ears and averaged.
The concentration of the corresponding active agent in perilymph samples was determined by high-performance liquid chromatography (HPLC, partly also named as high-pressure liquid chromatography) and measurement of auto fluorescence of the respective active agent. For HPLC the eluent consisted to 45% of 90% acetonitrile and to 55% of ammonium acetate (40 mM, pH<5). The flow rate was 0.4 mL/min and injection volume was 10 μL. Each sample was diluted with 60% methanol, if the signal was too strong. After each run the injection needle was washed with 100% isopropanol. The detection limit was 20 fmol/L.
From the determined active agent concentrations the elimination half times were then calculated.

[7] = Degradation in liver homogenate to toxic dimethylated degradation products (HPLC); details: rat liver homogenate, conclusion
Method: Also a reference measurement with pure 6-fluoro-9-methyl-β-carboline (6F9MβC) was performed.
To simulate the degradation process in the liver, different concentrations (1 μM, 10 μM and 100 μM) of 6-fluoro-9-methyl-β-carboline (6F9MβC) were incubated with homogenized rat liver for an hour under physiological conditions (37° C. in physiological phosphate-buffered sodium chloride solution, PBS). Subsequently, a HPLC measurement of the filtrated extract was carried out.
The characterization of each substance was achieved by high-performance liquid chromatography (HPLC, partly also named as high-pressure liquid chromatography). For HPLC the eluent consisted to 45% of 90% acetonitrile and to 55% of ammonium acetate (40 mM, pH<5). The flow rate was 0.4 mL/min and injection volume was 10 μL. Each sample was diluted with 60% methanol, if the signal was too strong.

For Cn1c2ccc(F)cc2c2ccncc21 [6F9MβC, 6-fluoro-9-methyl-β-carboline], the “BDNF expression relative to expression induced by 9MβC” value [1] was “approximately twice as high”, the “Cbln expression relative to expression induced by 9MβC” value [2] was “approximately 1.5 times” and the “quotient Bax/Bcl2 compared to 9MβC” value (quotient Bax/Bcl2) was “significantly lower”. For the same molecule, the “DKK1 expression compared to the highest concentration of 9MβC” value ([3]; 10 μM 6F9MβC) was “comparable or even higher”, the “DKK1 expression relative to expression induced by 9MβC” value ([3]; 30 μM each, 14-day exposition) was “comparable” and the “acoustic trauma-induced dying of outer hair cells” value [4] was “could be prevented”. The “increase of the concentration of CREB (factor)” value (CREB) was 8, the “increase of the concentration of BDNF” value [5] was “up to three times” and the elimination half time [6] was “approximately 6.0 h”. The “metabolization to known toxic (di-methylated) degradation products” value [7] was “does not lead to toxic di-methylated products” and the “metabolization to known toxic (di-methylated) degradation products” value ([7]; listed as 6-fluoro-9-methyl-β-carboline) was “does not metabolize to known toxic degradation products”.
